In BindingDB's records for doi:10.7270/Q2PZ577D (The Scripps Research Institute Molecular Screening Center, 2008) one finds IC50 data, which are given here for 1 compound.

The structures appear in SMILES notation.

This experiment addresses T1, Signal transducer and activator of transcription 3 [702-738,740-752] (Homo sapiens, UniProt P40763).
T1 construct: 702-738,740-752
As to the kind of experiment: dose response, counter-screen for STAT1 inhibitor project (AID 1409). Background: Counterscreens check selectivity or assay interference.

T1 sequence (P40763 as listed by the source): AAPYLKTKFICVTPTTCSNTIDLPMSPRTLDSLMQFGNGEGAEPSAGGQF

In general, IC50 refers to the concentration needed to halve the response being measured. A low value points to higher potency. `CCN1C(=O)C(=CNNC(=O)c2ccncc2)C(=O)N(CC)C1=S` [SMR000218837] gave an IC50 greater than 55.7 µM.
